Measured values as given in patent publication US20260034135A1, “USE OF N6-BENZYLAMINOPURINE AS AN APPETITE SUPPRESSANT” (THE GOVERNING COUNCIL OF THE UNIVERSITY OF TORONTO, priority 2022, published 2026).

Legend:
[1] = Intraperitoneal insulin tolerance test (ITT); assay type: in vivo, CD-1 mice
Procedure: All protocols using mice were approved by the University Animal Care Committee of the University of Toronto and were performed in accordance with the Canadian Council on Animal Care. Animal experiments were performed in three separate animal facilities: Medical Sciences Building (MSB), Centre for Cellular and Biomolecular Research (CCBR) and the Biological Sciences Facility (BSF) due to ongoing construction and housing changes. Facilities and dates are indicated in each experimental cohort. N6-benzylaminopurine (BAP; also called N6-benzyladenine) was obtained from Sigma (B3408, cell culture grade in powder form; CAS number 1214-39-7). Male and female CD-1 mice aged 6-7 weeks were acquired from Charles Rivers and acclimated on a chow diet for one week prior to experimentation. Mice were then weight-matched and placed on either a 60% high fat diet (HFD) or sucrose-matched control diet for 4 weeks (from Research Diets: 60% HFD D12492 and the sucrose-matched control diet […]). After 3 weeks on the diet, mice were acclimated for one week to the drinking apparatus, a 50 mL canonical tube with a drinking tube. After 4 weeks on the diet, the mice were again weight-matched and randomly assigned to either the control or BAP group. […] The average dosages achieved using this method are as follows: male HFD (200 mg/kg/day), male control (157 mg/kg/day), female HFD (189 mg/kg/day), and female control (129.9 mg/kg/day). The mice were exposed continuously to the solutions for a total of 33 days. One week prior to the end of the experiment (day 28), the mice were fasted for 4 hr and underwent intraperitoneal insulin tolerance testing (ITT). After 33 days, the mice were sacrificed, and their tissues were collected. RNA was isolated from the collected hypothalamic and used to quantify gene expression via qRT-PCR. Male mice were placed on a 60% HFD for 8 weeks prior to the ITT and GTT analyses. At 4 weeks, treatment with BAP or vehicle was introduced on a daily basis in the honey emulsion as described above. The mice were then briefly fasted to determine the response to insulin or glucose. For the intraperitoneal insulin tolerance test (ITT), mice were transferred to clean cages without food and fasted for 4 hours. The mice were weighed after 3 hours of fasting and these weights were used to determine optimal insulin dosage (1 IU/kg). The appropriate amount of insulin was aliquoted. After 4 hours of fasting, blood glucose was measured via tail vein using a standard glucometer. This value was recorded as the 0-minute timepoint. The mice were intraperitoneal injected with their aliquoted amount of insulin and returned to their cage. Blood glucose was measured via tail vein 15, 30, and 60 minutes after insulin injection. Mice were provided with 20% glucose solution and removed from ITT if hypoglycemia was observed. Upon completion of ITT, mice were returned to cages with food and water and monitored for adverse effects.

AMPK = AMPK phosphorylation by Western blot in mHypoE-46; assay type: cell-based, mouse; conditions: 100 μM BAP, 15 min, mHypoE-46
Procedure: (§1) mHypoE-46 cells were serum starved in 5.5 mM glucose (LG) DMEM for 1 hour prior to treatment with vehicle (0.1% DMSO), 100 µM BAP or H20, […] 5-Aminoimidazole-4-carboxamide ribonucleotide (AICAR) or 0 mM glucose DMEM. Protein was harvested using 1× cell lysis buffer (Cell Signaling Technologies, Inc, CST) containing protease and phosphatase inhibitors. A total of 30 μg protein was separated on a 12% SDS-polyacrylamide gels and transferred onto PVDF membranes. Membranes were blocked in 5% milk dissolved in Tris-buffered saline with Tween 20 (TBS-T) for 1 h and incubated with primary antibody overnight at 4° C. phospho-AMPKα (Thr172; cat. 2532S, CST), and total AMPKα (cat. 2535S, CST); phospho-p70-S6K (Thr389; cat. 9205S, CST) and total p70-S6K (cat. 9202S, CST); insulin receptor ß (cat. 3025S, CST); phospho-AKT (Ser473; cat. 9271S, CST) and total AKT (cat. 9272S, CST); phospho-ERK1/2 (Thr202/Tyr204; cat. 9101, CST) and total ERK (cat. 4695, CST) were diluted 1:1000 in 5% milk in TBS-T. Membranes were washed and incubated with secondary HRP-linked antirabbit antibody (1:7500 in 5% milk in TBS-T, CST) for 1 h, washed, and imaged using the Signal Fire ECL Reagent (CST) on the iBright 1500 Imaging System (Thermofisher). Protein density was quantified using ImageJ or the iBright Imaging System.

p70-S6K = p70-S6K (Thr389) phosphorylation by Western blot in mHypoE-46; assay type: cell-based, mouse; conditions: 100 μM BAP for 5, 15, 30, 60 and 90 minutes, serum-starved mHypoE-46
Procedure: as §1, with “System. […]” for “System.”

ERK1/2 = ERK1/2 (Thr202/Tyr204) phosphorylation by Western blot in mHypoE-46; assay type: cell-based, mouse; conditions: 100 μM BAP, 5 minutes
Procedure: mHypoE-46 cells were serum starved in 5.5 mM glucose (LG) DMEM for 1 hour prior to treatment with vehicle (0.1% DMSO), 100 µM BAP or H20, […] 5-Aminoimidazole-4-carboxamide ribonucleotide (AICAR) or 0 mM glucose DMEM. Protein was harvested using 1× cell lysis buffer (Cell Signaling Technologies, Inc, CST) containing protease and phosphatase inhibitors. A total of 30 μg protein was separated on a 12% SDS-polyacrylamide gels and transferred onto PVDF membranes. […] Protein density was quantified using ImageJ or the iBright Imaging System.
We also assessed the activity of another key signal transduction cascade, the MAPK ERK1/2 pathway. mHypoE-46 neurons were treated with 100 μM BAP and vehicle control for 5 minutes followed by protein isolation and Western blot analysis. The phosphorylation level of ERK1/2, one of the MAPK family members, was assessed.

[2] = tested on: insulin receptor subunit beta (InsRb); experiment: Insulin receptor subunit beta protein level by Western blot in mHypoE-46; assay type: cell-based, mouse
Procedure: as §1
The mHypoE-46 neurons were exposed to […] BAP for 16 h followed by RNA isolation. […]

c1ccc(CNc2ncnc3nc[nH]c23)cc1 [BAP, N6-benzylaminopurine]
fasting blood glucose with BAP (ITT) ([1]; female CD-1, 60% HFD, BAP emulsion, one week prior to sacrifice, 4 hr fast (data not shown)): no significant differences | fasting blood glucose with BAP ([1]; female CD-1, BAP in drinking water, ITT one week prior to sacrifice, 4 hr fast): no significant differences | insulin sensitivity (ip insulin tolerance test) ([1]; female CD-1, HFD, BAP in drinking water, after 28 days of exposure): do not exhibit enhanced insulin sensitivity | fasting blood glucose vs HFD without BAP ([1]; male CD-1, 60% HFD, BAP in drinking water, ITT at day 28, 4 hr fast): significantly lower fasting blood glucose levels | insulin sensitivity (blood glucose after ip insulin tolerance test) ([1]; male CD-1, 60% HFD, after 28 days of daily oral BAP exposure): improved glucose tolerance | AMPK phosphorylation or activation vs vehicle (AMPK): significant decrease | p70-S6K (Thr389) phosphorylation (activity) (p70-S6K): significantly downregulated | ERK1/2 phosphorylation at Thr202/Tyr204 (ERK1/2): significantly decreased | InsR protein level in response to cellular insulin resistance, BAP relative to vehicle control ([2]; 100 μM BAP 24 h, insulin pre-treatment (100 μM, 24 h)): no change | basal levels of InsRb protein ([2]; 100 μM BAP, 24 hours): significantly increased
